The values that follow come from patent publication US9795574B2, “Method for preparing agomelatine cocrystals and composition containing same” (SOONCHUNHYANG UNIVERSITY INDUSTRY ACADEMY COOPERATION …, priority 2014, dated 2017).

Series [1] is described as follows: Thermal stability testing: powder kept at 70° C., then X-ray diffraction analysis. In kind it is physicochemical. From the text:
In other words, the antisolvent method of the present invention makes it possible to produce an agomelatine-resorcinol co-crystal with higher stability.

Series [2] is described as follows: Intrinsic dissolution rate (IDR) of pellets, USP equipment 2 (paddle method). In kind it is physicochemical. The settings on record: for Dissolution rate (intrinsic dissolution rate in terms of ratio): 37° C., 50 rpm, ratio to agomelatine. As to the method: In order to measure the intrinsic dissolution rate (IDR) of agomelatine and the agomelatine-resorcinol co-crystal, 50 mg of agomelatine and 72.63 mg of the agomelatine-resorcinol co-crystal of Example 1 were molded into a number of pellets having a constant surface area and then subjected to a dissolution testing.
Each powder specimen was put in a 13 mm pellet die (Specac, UK), squeezed down under a weight of 0.5 ton for 2 minutes with a hydraulic compressor and then molded into pellets having a constant surface area of 1.33 cm^2.
The pellets thus obtained were immobilized in 900 ml of a testing solution (pH 1.2 HCl aqueous solution and pH 6.8 phosphate-buffer solution) at 37° C., which solution was stirred with USP equipment 2 (paddle method) operated at 50 rpm. Then, the concentration of the agomelatine released from the pellets was measured.
3 ml of the testing solution was collected each time of 3 min, 5 min, 10 min, 15 min, 20 min, 25 min, 30 min, 45 min, 60 min, 75 min, 90 min, 105 min, and 120 min. The concentration (dissolved amount) of agomelatine in the collected solution was measured with UV-3600 (Shimadzu, Japan) spectrochemical analysis equipment.
FIG. 11 presents the results of the dissolution testing for the agomelatine and the agomelatine-resorcinol co-crystal in an aqueous solution of HCl (pH 1.2) and a phosphate-buffered solution (pH 6.8).

Where [3] appears, read: Medium pH = 1.2 HCl aqueous solution.
The mark [4] stands for this setting: Medium pH = 6.8 phosphate-buffer solution.

Regarding “agomelatine-resorcinol co-crystal [Preparation Example 1, reference compound]”, in series [1] (same temperature conditions (70° C.), 7 days), the “crystal form after storage (XRD)” value is listed as “deformation occurred”.

Regarding “agomelatine-resorcinol co-crystal [Example 1]”, the “Dissolution rate (intrinsic dissolution rate in terms of ratio)” value in series [2] (setting [3]) is on record as 2.3; in series [2] (setting [4]) it was 3.2. In addition, the “dissolution rate higher than agomelatine” value stood at 2.3 fold in series [2] (acidic medium (pH 1.2)) and 3.2 fold in series [2] (neutral medium (pH 6.8)). The “crystal form after storage (XRD)” value in series [1] (kept at 70° C. for 30 days) is “pure crystal form was maintained”.

`COc1ccc2cccc(CCNC(C)=O)c2c1` [Agomelatine, agomelatine]: the “Dissolution rate (intrinsic dissolution rate in terms of ratio)” value in series [2] (setting [3]) and in series [2] (setting [4]) was 1.0 throughout.
